Results published in US8399489B2, “Antibacterial piperdine derivatives” (Astrazeneca AB, priority 2005, dated 2013).
≈ marks a conversion by molar mass, not a printed value.

How the values were obtained:
Type in all cases: cell-based
[1] = tested on: Streptococcus pneumoniae; test: Bacterial susceptibility testing in liquid media (MIC), Streptococcus pneumoniae; details: lowest concentration reducing growth by 80% or more, 37 degrees C., 24 hrs, read-out: MIC against Streptococcus pneumoniae
Description: (§1) Compounds were tested for antimicrobial activity by susceptibility testing in liquid media. Compounds were dissolved in dimethylsulfoxide and tested in 10 doubling dilutions in the susceptibility assays. The organisms used in the assay were grown overnight on suitable agar media and then suspended in a liquid medium appropriate for the growth of the organism. The suspension was a 0.5 McFarland and a further 1 in 10 dilution was made into the same liquid medium to prepare the final organism suspension in 100 μL. Plates were incubated under appropriate conditions at 37 degrees C. for 24 hrs prior to reading. The Minimum Inhibitory Concentration was determined as the lowest drug concentration able to reduce growth by 80% or more.

[2] = tested on: EFM073; test: Bacterial susceptibility testing in liquid media (MIC), EFM073; details: strain EFM073; lowest concentration reducing growth by 80% or more; 37 degrees C., 24 hrs
Description: as §1

[3] = tested on: HIN446; test: Bacterial susceptibility testing in liquid media (MIC), HIN446; details: strain HIN446; lowest concentration reducing growth by 80% or more; 37 degrees C., 24 hrs
Description: as §1

[4] = tested on: SPN548; test: Bacterial susceptibility testing in liquid media (MIC), SPN548; details: strain SPN548; lowest concentration reducing growth by 80% or more; 37 degrees C., 24 hrs
Description: as §1

[5] = tested on: SAU516; test: Bacterial susceptibility testing in liquid media (MIC), SAU516; details: strain SAU516; lowest concentration reducing growth by 80% or more; 37 degrees C., 24 hrs
Description: as §1

[6] = tested on: MCA445; test: Bacterial susceptibility testing in liquid media (MIC), MCA445; details: strain MCA445; lowest concentration reducing growth by 80% or more; 37 degrees C., 24 hrs
Description: as §1

SMILES | MIC [1] [µg/mL] | MIC EFM073 [2] [µg/mL] | MIC HIN446 [3] [µg/mL] | MIC SPN548 [4] [µg/mL] | MIC SAU516 [5] [µg/mL] | MIC MCA445 [6] [µg/mL]
CO[C@@H]1CN(c2cc(C(=O)O)nc(Cl)n2)CC[C@@H]1NC(=O)c1[nH]c(C)c(Cl)c1Cl (racemic) [Example 48, Cis(±)2-Chloro-6-(4-{[(3,4-dichloro-5-methyl-1H-pyrrol-2-yl)carbonyl]amino}-3-methoxypiperidin-1-yl)pyrimidine-4-carboxylic acid] | 0.13 (≈ 0.281 µM) |  |  |  |  | 
CO[C@@H]1CN(c2cc(C(=O)O)nc3ccccc23)CC[C@@H]1NC(=O)c1cc(Cl)c(C)[nH]1 (racemic) [Example 60, Cis(±)4-(4-{[(4-chloro-5-methyl-1H-pyrrol-2-yl)carbonyl]amino}-3-methoxypiperidin-1-yl)quinoline-2-carboxylic acid] |  | 8 (≈ 18.1 µM) | 4 (≈ 9.03 µM) | 2 (≈ 4.52 µM) | 2 (≈ 4.52 µM) | 0.25 (≈ 0.564 µM)
CO[C@@H]1CN(c2cc(C(=O)O)ncc2Cl)CC[C@@H]1NC(=O)c1[nH]c(C)c(Cl)c1Cl (racemic) [Example 315, Cis(±)-5-chloro-4-(4-{[(3,4-dichloro-5-methyl-1H-pyrrol-2-yl)carbonyl]amino}-3-methoxypiperidin-1-yl)pyridine-2-carboxylic acid] |  | 4 (≈ 8.66 µM) | 2 (≈ 4.33 µM) | 0.5 (≈ 1.08 µM) | 4 (≈ 8.66 µM) | 0.13 (≈ 0.282 µM)
CO[C@H]1CN(c2nc3cccc(C(=O)O)c3s2)CC[C@H]1NC(=O)c1[nH]c(C)c(Cl)c1Cl [Example 294] |  | 0.016 (≈ 0.0331 µM) | 0.031 (≈ 0.0641 µM) | 0.0039 (≈ 0.00807 µM) | 0.031 (≈ 0.0641 µM) | 0.001 (≈ 0.00207 µM)
Cc1[nH]c(C(=O)N[C@@H]2CCN(c3cc(C(=O)O)ccn3)C[C@@H]2F)c(Cl)c1Cl [Example 345, 2-((3S,4R)-4-{[(3,4-dichloro-5-methyl-1H-pyrrol-2-yl)carbonyl]amino}-3-fluoropiperidin-1-yl)isonicotinic acid] |  | 0.13 (≈ 0.313 µM) | 0.25 (≈ 0.602 µM) | 0.03 (≈ 0.0722 µM) | 0.5 (≈ 1.2 µM) | 0.031 (≈ 0.0747 µM)
